Results from US9796711B2, “Substituted pyrazolo[3,4-b]pyridin-6-carboxylic acids and method of use” (AbbVie S.àr.l., priority 2015, dated 2017).
pEC50: −log10 of the molar value.

How the values were obtained:
ΔF508-CFTR [1] = biological target: T1, ΔF508-CFTR (Homo sapiens, UniProt P13569, DEL508-508); experiment: CFTR cell surface levels using HRP-tagged ΔF508-CFTR expressing CFBE cells, in the presence of a co-corrector; type: cell-based
T1 construct: host or cells: CFBE41o-, doxycycline-inducible
Outline: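 Cells were seeded with 0.5 μg/mL doxycycline and held 68 h at 37 °C. Test compounds plus 3 μM co-corrector (final 0.1% DMSO) were then added for 20 h at 33 °C. Washed cells received HRP substrate, and luminescence was normalized between DMSO and 3 μM co-corrector controls.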

ΔF508-CFTR [2] = biological target: T1, ΔF508-CFTR; experiment: CFTR cell surface levels using HRP-tagged ΔF508-CFTR expressing CFBE cells, intrinsic corrector capacity; type: cell-based
Outline: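 Here the cells express ΔF508-CFTR with horseradish peroxidase inserted in extracellular loop 4, so only rescued channel at the surface gives luminescent signal. Compounds act on their own, 20 h at the reduced temperature of 33 °C; values are percent activity relative to DMSO and a 3 μM corrector.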

[3] = HRP-tagged ΔF508-CFTR expressing CFBE cells, in the presence of 3 μM co-corrector
[4] = HRP-tagged ΔF508-CFTR expressing CFBE cells, in the presence of 3 μM co-corrector, read-out: EC50
[5] = HRP-tagged ΔF508-CFTR expressing CFBE cells, intrinsic corrector capacity (no co-corrector), 33° C., 20 hours
[6] = HRP-tagged ΔF508-CFTR expressing CFBE cells, intrinsic corrector capacity (no co-corrector), 33° C., 20 hours, read-out: EC50

T1 sequence (P13569 with tags, fused parts or gaps DEL508-508): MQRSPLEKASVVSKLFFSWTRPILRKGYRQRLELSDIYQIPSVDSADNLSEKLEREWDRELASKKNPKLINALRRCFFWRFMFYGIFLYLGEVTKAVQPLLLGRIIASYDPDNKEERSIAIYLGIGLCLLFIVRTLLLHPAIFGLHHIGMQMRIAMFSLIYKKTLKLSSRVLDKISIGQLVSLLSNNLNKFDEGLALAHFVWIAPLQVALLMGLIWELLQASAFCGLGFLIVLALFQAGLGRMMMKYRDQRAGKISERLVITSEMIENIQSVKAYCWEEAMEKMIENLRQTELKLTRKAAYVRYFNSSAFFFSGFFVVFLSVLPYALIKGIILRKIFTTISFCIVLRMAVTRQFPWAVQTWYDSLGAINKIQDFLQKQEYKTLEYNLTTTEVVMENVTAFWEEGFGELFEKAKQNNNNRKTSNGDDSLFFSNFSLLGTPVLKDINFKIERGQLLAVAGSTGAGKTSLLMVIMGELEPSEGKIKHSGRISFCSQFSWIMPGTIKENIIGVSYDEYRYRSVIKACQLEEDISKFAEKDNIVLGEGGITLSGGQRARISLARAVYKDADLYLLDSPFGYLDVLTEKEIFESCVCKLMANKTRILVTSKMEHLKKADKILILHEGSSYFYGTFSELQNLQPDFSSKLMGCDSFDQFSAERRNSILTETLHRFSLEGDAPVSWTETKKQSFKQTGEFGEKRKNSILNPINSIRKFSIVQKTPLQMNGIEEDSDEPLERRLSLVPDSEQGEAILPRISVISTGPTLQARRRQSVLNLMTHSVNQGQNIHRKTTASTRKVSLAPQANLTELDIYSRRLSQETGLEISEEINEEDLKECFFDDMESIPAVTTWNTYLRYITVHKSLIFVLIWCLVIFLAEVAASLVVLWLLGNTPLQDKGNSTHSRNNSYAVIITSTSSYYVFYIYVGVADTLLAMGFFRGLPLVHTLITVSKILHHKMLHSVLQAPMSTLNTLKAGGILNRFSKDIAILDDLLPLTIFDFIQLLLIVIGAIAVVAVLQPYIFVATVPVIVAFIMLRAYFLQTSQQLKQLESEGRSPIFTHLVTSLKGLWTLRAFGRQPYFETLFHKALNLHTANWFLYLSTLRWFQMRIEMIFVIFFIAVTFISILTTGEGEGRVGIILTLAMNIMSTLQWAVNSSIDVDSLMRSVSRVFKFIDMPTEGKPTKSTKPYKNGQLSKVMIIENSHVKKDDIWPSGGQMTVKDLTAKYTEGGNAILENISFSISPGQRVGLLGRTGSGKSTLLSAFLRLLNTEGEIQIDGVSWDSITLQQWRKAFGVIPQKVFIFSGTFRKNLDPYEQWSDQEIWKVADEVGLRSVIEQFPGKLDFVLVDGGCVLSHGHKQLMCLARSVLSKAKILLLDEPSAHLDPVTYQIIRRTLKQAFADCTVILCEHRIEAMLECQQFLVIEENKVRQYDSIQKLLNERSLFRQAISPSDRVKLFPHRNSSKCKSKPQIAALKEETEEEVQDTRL

Row | Structure (SMILES) | % Activation (ΔF508-CFTR [1]; [3]) [%] | pEC50 (ΔF508-CFTR [1]; [4]) | % Activation (ΔF508-CFTR [2]; [5]) [%] | pEC50 (ΔF508-CFTR [2]; [6]) | pEC50 (ΔF508-CFTR [1]) | pEC50 (ΔF508-CFTR [2])
1 | COCC1(OC)CCN(c2cc(C(=O)O)nc3c2c(C2CCC2)nn3-c2ccccc2)CC1 [compound 526, 3-cyclobutyl-4-[4-methoxy-4-(methoxymethyl)piperidin-1-yl]-1-phenyl-1H-pyrazolo[3,4-b]pyridine-6-carboxylic acid] | 284.5 | 6.43 | 97.7 | 6.39 | – | –
2 | O=C(O)c1cc(N2CC[C@H](F)C2)c2c(C3CCC3)nn(-c3ccccc3)c2n1 [compound 527, 3-cyclobutyl-4-[(3S)-3-fluoropyrrolidin-1-yl]-1-phenyl-1H-pyrazolo[3,4-b]pyridine-6-carboxylic acid] | 291.2 | 5.99 | 100.1 | 5.93 | – | –
3 | O=C(O)c1cc(N2CC(F)(F)C2)c2c(C3CCC3)nn(-c3ccccc3)c2n1 [compound 528, 3-cyclobutyl-4-(3,3-difluoroazetidin-1-yl)-1-phenyl-1H-pyrazolo[3,4-b]pyridine-6-carboxylic acid] | 209.2 | 5.71 | 80.74 | 5.48 | – | –
4 | O=C(O)c1cc(N2CC(N3CCOC3=O)C2)c2c(C3CCC3)nn(-c3ccccc3)c2n1 [compound 529, 3-cyclobutyl-4-[3-(2-oxo-1,3-oxazolidin-3-yl)azetidin-1-yl]-1-phenyl-1H-pyrazolo[3,4-b]pyridine-6-carboxylic acid] | 126.7 | < 5.00 | 5.039 | < 5.00 | – | –
5 | CCC1(F)CN(c2cc(C(=O)O)nc3c2c(C2CCC2)nn3-c2ccccc2)C1 [compound 530, 3-cyclobutyl-4-(3-ethyl-3-fluoroazetidin-1-yl)-1-phenyl-1H-pyrazolo[3,4-b]pyridine-6-carboxylic acid] | 254.15 | 6.27 | 90.17 | 6.14 | – | –
6 | O=C(O)c1cc(N2CCOC(CO)C2)c2c(C3CCC3)nn(-c3ccccc3)c2n1 (stereo not shown) [compound 531, 3-cyclobutyl-4-[2-(hydroxymethyl)morpholin-4-yl]-1-phenyl-1H-pyrazolo[3,4-b]pyridine-6-carboxylic acid] | 223.4 | 5.84 | 91.66 | 5.48 | – | –
7 | COCCOCC1(F)CCN(c2cc(C(=O)O)nc3c2c(C2CCC2)nn3-c2ccccc2)C1 (stereo not shown) [compound 532, 3-cyclobutyl-4-{3-fluoro-3-[(2-methoxyethoxy)methyl]pyrrolidin-1-yl}-1-phenyl-1H-pyrazolo[3,4-b]pyridine-6-carboxylic acid] | 271.77 | 6.46 | 107.05 | 6.15 | – | –
8 | CN(c1cc(C(=O)O)nc2c1c(C1CCC1)nn2-c1ccccc1)[C@H]1C[C@@H](O)C1 [compound 533, 3-cyclobutyl-4-[(cis-3-hydroxycyclobutyl)(methyl)amino]-1-phenyl-1H-pyrazolo[3,4-b]pyridine-6-carboxylic acid] | 315.85 | 5.91 | 114.5 | 5.49 | – | –
9 | O=C(O)c1cc(N2CC3(CCOC3)C2)c2c(C3CCC3)nn(-c3ccccc3)c2n1 [compound 534, 3-cyclobutyl-4-(6-oxa-2-azaspiro[3.4]octan-2-yl)-1-phenyl-1H-pyrazolo[3,4-b]pyridine-6-carboxylic acid] | 281.95 | 6.05 | 111 | 5.48 | – | –
10 | O=C(O)c1cc(N2CC[C@H](F)[C@H](O)C2)c2c(C3CCC3)nn(-c3ccccc3)c2n1 [compound 535, 3-cyclobutyl-4-[(3R,4S)-4-fluoro-3-hydroxypiperidin-1-yl]-1-phenyl-1H-pyrazolo[3,4-b]pyridine-6-carboxylic acid] | 205.9 | 5.85 | 56.68 | 5.55 | – | –
11 | CC1(O)CN(c2cc(C(=O)O)nc3c2c(C2CCC2)nn3-c2ccccc2)C1 [compound 536, 3-cyclobutyl-4-(3-hydroxy-3-methylazetidin-1-yl)-1-phenyl-1H-pyrazolo[3,4-b]pyridine-6-carboxylic acid] | 209.35 | 5.61 | 49.72 | 5.48 | – | –
12 | O=C(O)c1cc(N2CCC3(CCNC3=O)C2)c2c(C3CCC3)nn(-c3ccccc3)c2n1 (stereo not shown) [compound 537, 3-cyclobutyl-4-(6-oxo-2,7-diazaspiro[4.4]nonan-2-yl)-1-phenyl-1H-pyrazolo[3,4-b]pyridine-6-carboxylic acid] | 191.2 | 5.48 | 45.36 | 5.48 | – | –
13 | O=C(O)c1cc(N2CC(F)(F)C[C@H]2CO)c2c(C3CCC3)nn(-c3ccccc3)c2n1 [compound 538, 3-cyclobutyl-4-[(2S)-4,4-difluoro-2-(hydroxymethyl)pyrrolidin-1-yl]-1-phenyl-1H-pyrazolo[3,4-b]pyridine-6-carboxylic acid] | 312.05 | 5.81 | 124.6 | 5.61 | – | –
14 | O=C(CN1CCN(c2cc(C(=O)O)nc3c2c(C2CCC2)nn3-c2ccccc2)CC1)NC1CCCCC1 [compound 540, 3-cyclobutyl-4-{4-[2-(cyclohexylamino)-2-oxoethyl]piperazin-1-yl}-1-phenyl-1H-pyrazolo[3,4-b]pyridine-6-carboxylic acid] | 314.05 | 6.49 | 142.2 | 6.34 | – | –
15 | O=C(O)c1cc(N2CC[C@@H](F)C2)c2c(C3CCC3)nn(-c3ccccc3)c2n1 [compound 541, 3-cyclobutyl-4-[(3R)-3-fluoropyrrolidin-1-yl]-1-phenyl-1H-pyrazolo[3,4-b]pyridine-6-carboxylic acid] | 287.85 | 6.10 | 120.7 | 6.01 | – | –
16 | COC1CN(c2cc(C(=O)O)nc3c2c(C2CCC2)nn3-c2ccccc2)C1 [compound 542, 3-cyclobutyl-4-(3-methoxyazetidin-1-yl)-1-phenyl-1H-pyrazolo[3,4-b]pyridine-6-carboxylic acid] | 290.6 | 5.75 | 104.6 | 5.73 | – | –
17 | O=C(O)c1cc(N2CCC3(CC2)CC(O)C3)c2c(C3CCC3)nn(-c3ccccc3)c2n1 [compound 543, 3-cyclobutyl-4-(2-hydroxy-7-azaspiro[3.5]nonan-7-yl)-1-phenyl-1H-pyrazolo[3,4-b]pyridine-6-carboxylic acid] | 304.9 | 6.62 | 129.15 | 6.52 | – | –
18 | O=C(O)c1cc(N2CCC[C@@H](CO)C2)c2c(C3CCC3)nn(-c3ccccc3)c2n1 [compound 544, 3-cyclobutyl-4-[(3R)-3-(hydroxymethyl)piperidin-1-yl]-1-phenyl-1H-pyrazolo[3,4-b]pyridine-6-carboxylic acid] | 273 | – | 129.55 | – | 6.34 | 6.10
19 | O=C(O)c1cc(N2CCCOCC2)c2c(C3CCC3)nn(-c3ccccc3)c2n1 [compound 545, 3-cyclobutyl-4-(1,4-oxazepan-4-yl)-1-phenyl-1H-pyrazolo[3,4-b]pyridine-6-carboxylic acid] | 247.05 | 6.25 | 109.4 | 5.94 | – | –
